The record followed here is article PMC4522657, “Identification of a DYRK1A Inhibitor that Induces Degradation of the Target Kinase using Co-chaperone CDC37 fused with Luciferase nanoKAZ” (Scientific Reports, 2015).

What all share (test): Kinase panel, CaNDY 1 µM
Assay type in all cases: biochemical

Test [1] deals with DYRK1B (Homo sapiens, UniProt Q9Y463). Details: purchased Carna Biosciences. An excerpt:
(§1) Detailed information on the assay conditions is available on the website of Carna Biosciences (http://www.carnabio.com/english/index.html; Kobe, Japan). In brief, full-length human recombinant kinases were expressed using a baculovirus expression system as amino-terminal GST-fusion proteins, and purified by glutathione-Sepharose chromatography. The GenBank accession numbers of DYRK1A, DYRK1B, DYRK2, and DYRK3 were NP_001387.2, NP_004705.1, NP_003574.1, and NP_003573.2. Kinase activities were evaluated by Off-chip Mobility Shift Assay after reaction of 1 μM of the substrate DYRKtide-F with ATP (25 μM for DYRK1A, 50 μM for DYRK1B, 10 μM for DYRK2, and 5 μM for DYRK3). For each compound, a DMSO solution was diluted in assay buffer to yield a final concentration of 1% DMSO. After incubation for one hour at room temperature, substrate phosphorylation was analyzed by electrophoretic separation of the substrate and products using a Caliper LC3000 platform (Caliper Life Sciences, Mountain View, CA, USA). The phosphorylated product (P)/(P + substrate) ratio was calculated at each concentration of each small molecule and the percent inhibition was expressed relative to a control assay in the absence of the small molecule. […] The IC50 of each compound was calculated by interpolation on a log-concentration-response curve fitted with a four-parameter logistic equation.
(§2) All kinase assays were carried out at Carna Biosciences. The inhibitory map was made with Kinome Render[36].

The target of test [2] is DYRK1A (Homo sapiens, UniProt Q13627). The arrangement: purchased Carna Biosciences.
Source text: as §1, §2

Test [3] addresses T1, Haspin (Homo sapiens, UniProt Q8TF76).
T1 sequence (Q8TF76 1-798): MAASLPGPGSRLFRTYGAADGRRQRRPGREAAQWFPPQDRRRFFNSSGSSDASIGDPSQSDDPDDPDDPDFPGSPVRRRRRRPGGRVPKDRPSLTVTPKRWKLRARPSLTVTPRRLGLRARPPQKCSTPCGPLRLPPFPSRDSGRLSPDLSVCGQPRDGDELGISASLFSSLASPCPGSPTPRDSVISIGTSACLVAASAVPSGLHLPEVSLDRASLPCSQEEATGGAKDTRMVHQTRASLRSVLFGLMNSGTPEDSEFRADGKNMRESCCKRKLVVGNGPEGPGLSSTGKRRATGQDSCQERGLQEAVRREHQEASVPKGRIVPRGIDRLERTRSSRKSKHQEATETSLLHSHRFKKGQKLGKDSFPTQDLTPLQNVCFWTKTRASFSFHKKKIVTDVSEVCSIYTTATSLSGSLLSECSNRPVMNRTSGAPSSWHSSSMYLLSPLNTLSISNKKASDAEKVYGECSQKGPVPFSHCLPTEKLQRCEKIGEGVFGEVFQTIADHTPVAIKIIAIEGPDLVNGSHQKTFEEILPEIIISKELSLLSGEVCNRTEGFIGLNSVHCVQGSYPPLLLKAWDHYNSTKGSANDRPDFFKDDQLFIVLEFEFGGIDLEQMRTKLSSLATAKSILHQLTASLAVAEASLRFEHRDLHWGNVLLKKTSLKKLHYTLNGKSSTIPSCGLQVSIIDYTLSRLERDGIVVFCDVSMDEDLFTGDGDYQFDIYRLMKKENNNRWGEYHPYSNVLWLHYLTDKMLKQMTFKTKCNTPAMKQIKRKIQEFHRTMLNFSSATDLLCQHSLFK
The arrangement: purchased Carna Biosciences.
Source text: as §1, §2

The target in test [4] is CLK1 (Homo sapiens, UniProt P49759). The arrangement: purchased Carna Biosciences.
Source text: as §1, with “Kinase activities were evaluated by Off-chip Mobility Shift Assay after reaction of 1 μM of the substrate DYRKtide-F with ATP (25 μM for DYRK1A, 50 μM for DYRK1B, 10 μM for DYRK2, and 5 μM for DYRK3).” left out
as §2

In test [5] the target is T2, TYK2 (Homo sapiens, UniProt P29597).
T2 construct: purchased Carna Biosciences
The settings on record: CaNDY 1 µM relative to DMSO.

Test [6] concerns the target T3, MNK2 (Homo sapiens, UniProt Q9HBH9).
T3 construct: purchased Carna Biosciences
The settings on record: CaNDY 1 µM relative to DMSO.

In test [7] the target is T4, Erk2 (Homo sapiens, UniProt P28482).
T4 construct: purchased Carna Biosciences
The conditions noted are these: CaNDY 1 µM relative to DMSO.

Test [8] addresses T5, EGFR(T790M) (Homo sapiens, UniProt P00533, T790M).
T5 construct: purchased Carna Biosciences
The settings on record: CaNDY 1 µM relative to DMSO.

Test [9] has as its target T6, FGFR4 (Homo sapiens, UniProt P22455).
T6 construct: purchased Carna Biosciences
The settings on record: CaNDY 1 µM relative to DMSO.

Test [10] addresses T7, Erk1 (Homo sapiens, UniProt P27361).
T7 construct: purchased Carna Biosciences
The conditions noted are these: CaNDY 1 µM relative to DMSO.

The target in test [11] is T8, CK2α2/β (Homo sapiens, UniProt P19784).
T8 construct: purchased Carna Biosciences
The settings on record: CaNDY 1 µM relative to DMSO.

Where [12] appears, read: 1 μM CaNDY, read-out: percentage inhibition.

Structures are written as SMILES.

As usually defined, the inhibition is the percentage by which the read-out fell short of the control. A word on the remaining activity: it is the signal under treatment as a percentage of the control signal.

Chain of DYRK1B (Q9Y463 whole entry, the tested form may be a part): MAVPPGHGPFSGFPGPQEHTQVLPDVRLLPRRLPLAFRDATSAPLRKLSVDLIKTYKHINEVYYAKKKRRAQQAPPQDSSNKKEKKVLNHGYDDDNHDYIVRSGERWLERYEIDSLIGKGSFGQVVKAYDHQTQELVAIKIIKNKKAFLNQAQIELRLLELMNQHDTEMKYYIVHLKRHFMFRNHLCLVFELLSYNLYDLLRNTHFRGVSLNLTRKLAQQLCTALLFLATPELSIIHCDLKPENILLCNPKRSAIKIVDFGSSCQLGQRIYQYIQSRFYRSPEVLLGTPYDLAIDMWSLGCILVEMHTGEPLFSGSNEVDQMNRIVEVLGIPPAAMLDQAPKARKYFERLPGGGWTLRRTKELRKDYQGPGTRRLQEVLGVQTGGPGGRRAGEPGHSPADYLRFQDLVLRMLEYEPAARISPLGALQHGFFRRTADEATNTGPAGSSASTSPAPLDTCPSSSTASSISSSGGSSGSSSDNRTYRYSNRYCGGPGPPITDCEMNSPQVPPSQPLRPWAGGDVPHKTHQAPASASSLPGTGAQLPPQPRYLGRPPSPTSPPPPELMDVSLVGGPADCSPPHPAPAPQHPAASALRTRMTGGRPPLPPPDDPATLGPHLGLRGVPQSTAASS
Chain of CLK1 (P49759 whole entry): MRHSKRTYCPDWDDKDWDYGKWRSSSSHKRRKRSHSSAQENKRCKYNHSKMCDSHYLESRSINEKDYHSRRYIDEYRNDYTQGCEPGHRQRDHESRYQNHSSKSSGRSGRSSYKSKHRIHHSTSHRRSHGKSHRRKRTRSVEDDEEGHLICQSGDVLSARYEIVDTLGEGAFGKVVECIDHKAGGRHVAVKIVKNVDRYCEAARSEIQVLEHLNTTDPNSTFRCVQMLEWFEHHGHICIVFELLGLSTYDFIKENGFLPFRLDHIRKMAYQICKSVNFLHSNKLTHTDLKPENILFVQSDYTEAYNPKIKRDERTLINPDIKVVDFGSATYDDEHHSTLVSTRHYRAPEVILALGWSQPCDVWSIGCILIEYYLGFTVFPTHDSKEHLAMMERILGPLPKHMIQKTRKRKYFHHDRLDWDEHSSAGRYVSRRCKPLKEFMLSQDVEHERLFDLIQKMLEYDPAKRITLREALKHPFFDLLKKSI
T3 sequence (Q9HBH9 whole entry): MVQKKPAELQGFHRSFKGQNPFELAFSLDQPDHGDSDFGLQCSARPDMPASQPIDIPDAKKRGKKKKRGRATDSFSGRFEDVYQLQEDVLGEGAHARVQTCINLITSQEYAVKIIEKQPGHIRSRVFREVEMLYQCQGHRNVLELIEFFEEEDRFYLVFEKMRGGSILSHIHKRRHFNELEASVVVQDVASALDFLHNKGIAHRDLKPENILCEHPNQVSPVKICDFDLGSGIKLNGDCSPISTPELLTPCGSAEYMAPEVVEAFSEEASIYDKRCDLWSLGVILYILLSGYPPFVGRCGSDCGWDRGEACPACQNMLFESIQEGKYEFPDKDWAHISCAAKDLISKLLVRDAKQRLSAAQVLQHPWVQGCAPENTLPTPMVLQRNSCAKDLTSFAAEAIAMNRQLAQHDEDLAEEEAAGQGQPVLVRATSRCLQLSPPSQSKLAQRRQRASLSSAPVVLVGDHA
T6 sequence (P22455 22-802): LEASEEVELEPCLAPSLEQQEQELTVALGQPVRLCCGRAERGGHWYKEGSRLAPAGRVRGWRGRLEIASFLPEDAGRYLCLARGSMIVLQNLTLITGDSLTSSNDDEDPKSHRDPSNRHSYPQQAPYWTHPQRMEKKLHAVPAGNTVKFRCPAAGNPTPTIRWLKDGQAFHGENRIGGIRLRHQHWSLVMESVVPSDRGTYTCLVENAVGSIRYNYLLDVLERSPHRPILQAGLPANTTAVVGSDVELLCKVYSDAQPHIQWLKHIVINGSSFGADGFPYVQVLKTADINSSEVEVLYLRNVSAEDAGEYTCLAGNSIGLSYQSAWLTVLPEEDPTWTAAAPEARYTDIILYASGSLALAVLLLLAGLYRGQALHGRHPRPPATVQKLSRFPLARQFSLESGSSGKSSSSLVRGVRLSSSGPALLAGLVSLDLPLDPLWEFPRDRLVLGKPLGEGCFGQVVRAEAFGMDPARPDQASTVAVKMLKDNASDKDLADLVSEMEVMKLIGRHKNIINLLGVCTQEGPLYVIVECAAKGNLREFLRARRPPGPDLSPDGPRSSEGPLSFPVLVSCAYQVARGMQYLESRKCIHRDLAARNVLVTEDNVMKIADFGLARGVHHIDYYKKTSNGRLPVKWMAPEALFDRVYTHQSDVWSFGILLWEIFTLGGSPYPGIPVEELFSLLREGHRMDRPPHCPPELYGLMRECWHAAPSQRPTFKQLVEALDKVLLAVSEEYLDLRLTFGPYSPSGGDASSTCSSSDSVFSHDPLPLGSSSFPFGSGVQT
T2 sequence (P29597 whole entry): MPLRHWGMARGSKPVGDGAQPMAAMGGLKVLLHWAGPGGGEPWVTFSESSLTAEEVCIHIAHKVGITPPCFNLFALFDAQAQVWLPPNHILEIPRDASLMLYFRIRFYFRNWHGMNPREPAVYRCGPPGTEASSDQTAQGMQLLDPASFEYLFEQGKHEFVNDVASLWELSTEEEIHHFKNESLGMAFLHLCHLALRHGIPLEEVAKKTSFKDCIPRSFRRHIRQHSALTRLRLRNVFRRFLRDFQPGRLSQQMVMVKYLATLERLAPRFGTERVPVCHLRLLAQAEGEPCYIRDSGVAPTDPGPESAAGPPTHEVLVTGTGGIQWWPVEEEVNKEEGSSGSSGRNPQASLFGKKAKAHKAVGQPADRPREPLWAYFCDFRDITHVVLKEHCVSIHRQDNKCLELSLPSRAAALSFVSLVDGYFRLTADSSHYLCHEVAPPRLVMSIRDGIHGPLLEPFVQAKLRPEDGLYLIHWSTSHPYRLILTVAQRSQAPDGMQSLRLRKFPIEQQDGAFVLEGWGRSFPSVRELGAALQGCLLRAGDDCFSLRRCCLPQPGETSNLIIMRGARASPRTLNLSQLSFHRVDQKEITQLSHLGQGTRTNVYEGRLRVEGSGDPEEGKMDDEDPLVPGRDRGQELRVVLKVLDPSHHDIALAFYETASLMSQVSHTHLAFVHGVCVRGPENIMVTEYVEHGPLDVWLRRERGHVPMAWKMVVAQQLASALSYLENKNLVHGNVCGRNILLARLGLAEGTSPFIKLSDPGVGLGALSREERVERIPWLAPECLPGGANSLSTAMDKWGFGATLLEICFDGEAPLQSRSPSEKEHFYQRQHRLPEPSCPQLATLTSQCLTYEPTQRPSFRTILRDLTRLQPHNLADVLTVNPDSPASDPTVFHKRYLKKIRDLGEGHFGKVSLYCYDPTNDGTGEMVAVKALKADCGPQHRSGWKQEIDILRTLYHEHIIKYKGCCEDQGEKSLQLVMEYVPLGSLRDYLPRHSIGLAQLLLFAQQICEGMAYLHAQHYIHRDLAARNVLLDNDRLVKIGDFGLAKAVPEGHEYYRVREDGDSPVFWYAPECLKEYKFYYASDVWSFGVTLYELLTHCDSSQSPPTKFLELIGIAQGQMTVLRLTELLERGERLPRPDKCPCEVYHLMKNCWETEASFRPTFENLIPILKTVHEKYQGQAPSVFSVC
T8 sequence (P19784 whole entry): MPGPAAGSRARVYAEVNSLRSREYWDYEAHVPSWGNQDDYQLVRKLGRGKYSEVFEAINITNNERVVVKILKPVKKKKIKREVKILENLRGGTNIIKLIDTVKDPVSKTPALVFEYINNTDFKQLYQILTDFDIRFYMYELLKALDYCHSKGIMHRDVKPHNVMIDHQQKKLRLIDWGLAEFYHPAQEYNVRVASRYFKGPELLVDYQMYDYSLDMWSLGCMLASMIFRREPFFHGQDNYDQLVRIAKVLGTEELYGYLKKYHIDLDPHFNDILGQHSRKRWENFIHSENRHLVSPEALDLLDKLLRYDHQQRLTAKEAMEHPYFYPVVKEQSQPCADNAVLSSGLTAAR
T8 sequence (P67870 whole entry partner): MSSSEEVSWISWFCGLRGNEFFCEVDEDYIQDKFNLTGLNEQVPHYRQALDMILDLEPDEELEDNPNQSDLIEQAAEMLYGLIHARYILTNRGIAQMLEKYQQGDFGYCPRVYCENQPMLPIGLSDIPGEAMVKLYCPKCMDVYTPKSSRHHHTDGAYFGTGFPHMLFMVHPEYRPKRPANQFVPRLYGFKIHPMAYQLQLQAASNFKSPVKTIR
T7 sequence (P27361 whole entry): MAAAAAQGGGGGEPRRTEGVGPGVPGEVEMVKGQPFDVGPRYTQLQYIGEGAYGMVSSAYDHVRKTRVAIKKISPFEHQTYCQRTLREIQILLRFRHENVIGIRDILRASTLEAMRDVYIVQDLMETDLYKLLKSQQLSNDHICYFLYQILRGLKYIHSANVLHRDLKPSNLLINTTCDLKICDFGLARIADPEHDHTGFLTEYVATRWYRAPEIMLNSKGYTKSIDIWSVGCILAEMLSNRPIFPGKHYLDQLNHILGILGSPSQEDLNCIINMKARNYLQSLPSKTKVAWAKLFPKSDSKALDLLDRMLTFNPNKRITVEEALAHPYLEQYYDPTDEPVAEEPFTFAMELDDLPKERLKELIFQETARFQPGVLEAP
T4 sequence (P28482 whole entry): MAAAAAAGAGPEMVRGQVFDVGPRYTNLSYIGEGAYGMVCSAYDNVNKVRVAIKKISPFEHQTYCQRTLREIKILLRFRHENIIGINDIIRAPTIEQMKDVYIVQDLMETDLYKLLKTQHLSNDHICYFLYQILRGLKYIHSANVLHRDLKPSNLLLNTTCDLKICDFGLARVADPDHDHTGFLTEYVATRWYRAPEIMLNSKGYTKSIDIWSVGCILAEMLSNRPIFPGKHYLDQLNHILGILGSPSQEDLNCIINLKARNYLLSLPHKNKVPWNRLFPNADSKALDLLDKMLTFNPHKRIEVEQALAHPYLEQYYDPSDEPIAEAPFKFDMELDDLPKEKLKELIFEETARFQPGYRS

In the case of `[H]/N=C1/NC(=O)C(=Cc2ccc3c(c2)CCO3)S1` [CaNDY, (Z)-5-[(2,3-dihydrobenzofuran-5-yl)methylene]-2-iminothiazolidin-4-one], the inhibition at 1 µM in test [1] (setting [12]), in test [2] (setting [12]), in [3] (setting [12]) and in [4] (read-out: percentage inhibition) was above 90% each time. The remaining activity at 1 µM worked out at 3.7% in [1] (CaNDY 1 µM relative to DMSO); 0.9% in [2] (CaNDY 1 µM relative to DMSO); 3.8% in test [3] (CaNDY 1 µM relative to DMSO); 90.3% in [6]; 97.6% in test [7]; 107% in test [9]. The remaining activity at 1 µM in [10] turned out to be 96.2%; in test [11], 23.4%. Besides, the “%Activity” value stood at 3.0% in test [4] (CLK1, CaNDY 1 µM relative to DMSO); 97.4% in test [5]; 107.5% in test [8].
